pIC50: −log10 of the molar value. Where a name gives a salt, the structure may show the parent alone.
Target: T1, RORγ (Homo sapiens, UniProt P51449)
T1 construct: expressed in transfected cells
T1 sequence (P51449 1-497 isoform P51449-2): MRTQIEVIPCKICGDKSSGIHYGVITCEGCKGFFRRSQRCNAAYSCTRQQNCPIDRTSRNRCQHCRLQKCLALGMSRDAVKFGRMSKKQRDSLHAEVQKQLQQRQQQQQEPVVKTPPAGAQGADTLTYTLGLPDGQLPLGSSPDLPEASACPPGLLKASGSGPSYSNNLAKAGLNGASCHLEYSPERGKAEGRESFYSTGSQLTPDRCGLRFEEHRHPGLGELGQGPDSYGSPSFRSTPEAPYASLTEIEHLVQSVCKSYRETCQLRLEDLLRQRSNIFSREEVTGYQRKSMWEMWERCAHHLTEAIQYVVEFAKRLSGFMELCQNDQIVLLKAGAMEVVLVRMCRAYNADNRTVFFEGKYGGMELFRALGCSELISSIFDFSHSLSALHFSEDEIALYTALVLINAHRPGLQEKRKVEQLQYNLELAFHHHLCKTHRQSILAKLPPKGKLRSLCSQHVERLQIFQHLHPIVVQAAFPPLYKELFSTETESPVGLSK
Test: Jurkat cell luciferase assay (human IL17 promoter reporter, RORγt overexpression)
Assay type: cell-based
Conditions: mean pIC50; detection limit of the assay 5
Description: RORγ is known to bind to a CNS (conserved non-coding sequences) enhancer element in the IL17 promoter. In this assay, RORγ activity is indirectly assessed using a luciferase reporter construct which contains the human IL17 promoter having the RORγ-specific CNS enhancer element. Inhibition of RORγ activity by a compound will result in a decrease in luciferase activity of Jurkat cells transfected with the reporter construct.
. For the 1.1 Kb fragment, PCR was used to amplify human IL17 proximal promoter region from genomic DNA of 293T cells using primers as follows: forward primer, 5′-[…]-3′ (SEQ ID NO. 4) (Xhol site is underlined) and reverse primer, 5′-[…]-3′ SEQ ID NO. 5) (HindIII site is underlined). The 1.1 kb DNA bands were excised, purified, and inserted into pMD19-T Simple Vector (Takara). After DNA sequencing confirmation, the 1.1 kb DNA was digested with XhoI and HindIII and inserted into XhoI/HindIII sites of pGL4.31[luc2P/GAL4UAS/Hygro] (Promega) to generate the pIL17-lkb-luc reporter construct. For the 1.9 Kb fragment, PCR was used to amplify human IL17 promoter region from genomic DNA using primers as follows: forward primer, 5′-[…]-3′ (SEQ ID NO. 6) (KpnI site is underlined) and reverse primer, 5′-[…]-3′ (SEQ ID NO. 7)(XhoI site is underlined). The resulting 1.9 kb DNA bands were excised, gel purified, and cloned into a pMD19-T Simple Vector (Takara). […] The 1.9 kb DNA fragment was released by double digestion with KpnI and XhoI and inserted into pIL17-lkb-luc to generate the luciferase reporter plasmid “pIL17-3kb-CNS-luc.” To overexpress RORγt, the full-length cDNA of human RORγt identical to the published sequence NM13 001001523 was cloned into pcDNA3.1 at the KpnI-NotI cloning sites to generate the RORγt overexpression plasmid “CDNA3.1DhRORγ49-8”. […]
Compounds were dissolved in DMSO at three concentrations, 10 mM, 400 uM and 16 uM, and were dispensed into 384-wells assay plate at 40 nl, 12.5 nl, 5 nl respectively. The volume was adjusted with pure DMSO to a give a final uniform volume of 40 nl Jurkat cells described above were counted and centrifuged. […]

Structure (SMILES)	pIC50
Cc1c(CN2CCN(C(=O)C3CCCC3)[C@@H](C)C2)cc(F)cc1NC(=O)c1cccc(C#N)c1 [Example 66, (S)-3-cyano-N-(3-((4-(cyclopentanecarbonyl)-3-methylpiperazin-1-yl)methyl)-5-fluoro-2-methylphenyl)benzamide]	~8.30
Cc1c(CN2CCN(C(=O)C3CCCC3)[C@@H](C)C2)cc(Cl)cc1NC(=O)c1cccc(C#N)c1 [Example 193, (S)-N-(5-chloro-3-((4-(cyclopentanecarbonyl)-3-methylpiperazin-1-yl)methyl)-2-methylphenyl)-3-cyanobenzamide, trifluoroacetic acid salt]	~8.60

Reference: patent publication US10005731B2, “Modulators of the retinoid-related orphan receptor gamma (ROR-gamma) for use in the treatment of autoimmune and inflammatory diseases” (Glaxo Group Limited, priority 2012, dated 2018)
